# Experimental data taken from patent US20240374552A1, “Compositions and Methods for Preventing or Reducing the Risk of Metabolic Syndrome” (priority 2021, published 2024).
# What was measured:
# [1] = tested on: mice; assay: Evaluation toxicity, 90-day daily intragastric administration in mice; assay type: in vivo; settings: for Percentage of dead mice (%): purity min 95%
# Method: To investigate the toxicity of tyrphostin AG17 the following doses were tested in mice, the animals were randomly divided into experimental groups corresponding to different doses of tyrphostin. Tyrphostin was administered intragastric via daily for 90 days, after 90 days, the mice were weighed and sacrificed by cervical dislocation.
# In a second evaluation for the treatments with 5.50 mg/kg to 55.50 mg/kg of tyrphostin, using a lot tyrphostin AG17 with a minimum purity of 98% is used; the percentage of dead mice is reduced to 0% and in the case of the treatment with 100.00 mg/kg, the deaths are reduced to 10%.
# [2] = tested on: mice; assay: Subacute toxicity, 14-day daily intragastric administration; assay type: in vivo
# Method: Animal studies in male and female mice of the CDI strain, and male rats of the Wistar strain were used.
# During the quarantine period (15 days) they were kept in a chamber with conditions of (22+2° C., 55+5% humidity and a light/dark cycle of 12:12 h), with food and water ad libitum. Prior to the start of the experiment, the animals (mice and rats) were deprived of food for 4 h, and recovered 2 h after the administration of the drug.
# The test animals were randomly divided into experimental groups corresponding to different doses of the drug, as shown in Table 2.
# [3] = Acute oral gavage toxicity; assay type: in vivo
# [4] = in vivo, 10 mg
# [5] = tested on: mice; assay: Evaluation toxicity, 90-day daily intragastric administration in mice; assay type: in vivo; settings: for Percentage of dead mice (%): purity min 95%; remark: listed apart in the source
# [6] = pH 7.2; cited from earlier work
# [7] = tested on: rat; settings: cited from earlier work
compound,measurement,setting,value
"CC(C)(C)c1cc(C=C(C#N)C#N)cc(C(C)(C)C)c1O [tyrphostin AG17, Tyrphostin AG17]",Percentage of dead mice (%),[1]; T1: 0.0001 mg/Kg daily 90 days,0%
same,Percentage of dead mice (%),[1]; T3: 0.001 mg/Kg daily 90 days,0%
same,Percentage of dead mice (%),[1]; T5: 0.175 mg/Kg daily 90 days,0%
same,Percentage of dead mice (%),[1]; T7: 0.76 mg/Kg daily 90 days,0%
same,Percentage of dead mice (%),[1]; T8: 1.70 mg/Kg daily 90 days,0%
same,Percentage of dead mice (%),[1]; T9: 1.75 mg/Kg daily 90 days,0%
same,Signs of toxicity during 90-day treatment,[1]; doses below 1.75 mg/kg,no apparent signs of toxicity
same,"Death, share of the population",[2]; 100.00 mg/kg,40%
same,Time until recovery from lethargy,[2]; 5.50 to 55.50 mg/kg,12 h
same,Signs of subacute toxicity presented,[2]; AT1: 0.175 mg/Kg daily 14 days,No apparent signs
same,Signs of subacute toxicity presented,[2]; AT2: 0.55 mg/Kg daily 14 days,No apparent signs
same,Signs of subacute toxicity presented,[2]; AT3: 1.75 mg/Kg daily 14 days,No apparent signs
same,Signs of subacute toxicity presented,[2]; AT4: 5.50 mg/Kg daily 14 days,Lethargy (10%)
same,"Lethargy, share of the population","[2]; AT4 group, 5.50 mg/kg",10%
same,Signs of subacute toxicity presented,[2]; AT5: 55.50 mg/Kg daily 14 days,Lethargy (20%)
same,"Lethargy, share of the population","[2]; AT5 group, 55.50 mg/kg",20%
same,Signs of subacute toxicity presented,[2]; AT6: 100.00 mg/Kg daily 14 days,Death (40%)
same,LD50,"[3]; C57BL/6, mouse, in vivo",33.3 mg/kg
same,Behavioral alterations,"[3]; doses 1.75, 5.5 and 17.5 mg/kg",inhibition in locomotion and piloerection
same,Lethal effect,"[3]; doses of 1.75, 5.5 and 17.5 mg/kg",no lethal effect observed
same,Mortality,"[3]; doses of 28, 40 and 55.5 mg/kg",increase in mortality
same,"Vdapa (L), Geometric Mean",[4],22.038 L
same,"Vdapa (L), Mean",[4],22.537 L
same,"Vdapa (L), Median",[4],22.494 L
same,"Percentage of dead mice, second evaluation","[5]; 5.50 mg/kg to 55.50 mg/kg, lot with minimum purity of 98%",0%
same,"Percentage of dead mice (deaths), second evaluation","[5]; 100.00 mg/kg, lot with minimum purity of 98%",10%
same,Percentage of dead mice (%),[5]; T2: 0.000175 mg/Kg daily 90 days,0%
same,Percentage of dead mice (%),[5]; T4: 0.0175 mg/Kg daily 90 days,0%
same,Percentage of dead mice (%),[5]; T6: 0.18 mg/Kg daily 90 days,0%
same,Percentage of dead mice (%),[5]; T10: 5.50 mg/Kg daily 90 days,10%
same,Percentage of dead mice (%),[5]; T11: 17.50 mg/Kg daily 90 days,10%
same,Percentage of dead mice (%),[5]; T12: 25.00 mg/Kg daily 90 days,0%
same,Percentage of dead mice (%),"[5]; T12: 25.00 mg/Kg daily 90 days, listed as tyrphostin",did not show any dead mice
same,Percentage of dead mice (%),[5]; T13: 28.00 mg/Kg daily 90 days,10%
same,Percentage of dead mice (%),[5]; T14: 40.00 mg/Kg daily 90 days,10%
same,Percentage of dead mice (%),[5]; T15: 50.00 mg/Kg daily 90 days,20%
same,Percentage of dead mice (%),[5]; T16: 55.50 mg/Kg daily 90 days,20%
same,Percentage of dead mice (%),[5]; T17: 100.00 mg/Kg daily 90 days,40%
same,Solubility,[6],~150 µg/mL
same,oral LD50,[7],87 mg/kg
